Results from the NIST ThermoML archive (doi:10.1016/j.fluid.2005.02.014).
Numbers after ± are expanded uncertainties.

Settings: Liquid; for mass density: 298.15 K, 101.33 kPa

| Normal boiling temperature | mass density (Vibrating tube method) | Compound | mass density |
| --- | --- | --- | --- |
| 50.73 ± 0.26 °C | – | CC(C)(C)Cl [2-chloro-2-methylpropane] | 836.45 ± 0.65 kg/m3 |
| 68.90 ± 0.26 °C | – | CC(C)CCl [1-chloro-2-methylpropane] | 870.94 ± 0.99 kg/m3 |
| 88.08 ± 0.26 °C | 878.8 ± 0.5 kg/m3 | C1CCOCC1 [tetrahydropyran] | – |

Further lines, the molecule ahead of its results:

| Compound | Normal boiling temperature | mass density (Vibrating tube method) | mass density |
| --- | --- | --- | --- |
| CCC(C)Cl (stereo not given) [2-chlorobutane] | 68.11 ± 0.26 °C | – | 867.26 ± 0.62 kg/m3 |
| CCCCCl [1-chlorobutane] | 78.37 ± 0.26 °C | – | 880.67 ± 0.6 kg/m3 |
